According to patent US20150105252A1, “SUBSTITUTED PYRAZOLES AS HERBICIDES” (E I DU PONT DE NEMOURS AND COMPANY, priority 2013, published 2015):

How the values were obtained:
waterhemp = test: Test C postemergence; assay type: in vivo, Amaranthus rudis
Outline: (§1)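 Seeds sown in loam–sand blend and treated preemergence with test chemicals in non-phytotoxic solvent with surfactant; postemergence plants in peat-based medium, treated at 2–18 cm (1- to 4-leaf stage). Greenhouse 13 to 15 days, then visual rating versus controls, 0 (no effect) to 100 (complete control).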

kochia = test: Test C postemergence; assay type: in vivo, Kochia scoparia
Outline: as §1

lambsquarters [1] = test: Test C postemergence; assay type: in vivo, Chenopodium album
Outline: as §1

pigweed = test: Test C postemergence; assay type: in vivo, Amaranthus retroflexus
Outline: as §1

blackgrass = test: Test C postemergence; assay type: in vivo, Alopecurus myosuroides
Outline: as §1

wheat = test: Test C postemergence; assay type: in vivo, Triticum aestivum
Outline: as §1

foxtail, giant = test: Test C postemergence; assay type: in vivo, Setaria faberii
Outline: as §1

lambsquarters [2] = test: Test C preemergence; assay type: in vivo, Chenopodium album
Outline: as §1

soybean = test: Test C postemergence; assay type: in vivo, Glycine max
Outline: as §1

velvetleaf = test: Test C postemergence; assay type: in vivo, Abutilon theophrasti
Outline: as §1

nutsedge, yellow = test: Test C postemergence; assay type: in vivo, Cyperus esculentus
Outline: as §1

morningglory = test: Test C postemergence; assay type: in vivo, Ipomoea coccinea
Outline: as §1

oilseed rape = test: Test C postemergence; assay type: in vivo, Brassica napus
Outline: as §1

corn = test: Test C postemergence; assay type: in vivo, Zea mays
Outline: as §1

johnsongrass = test: Test C postemergence; assay type: in vivo, Sorghum halepense
Outline: as §1

chickweed = test: Test C postemergence; assay type: in vivo, Stellaria media
Outline: as §1

ryegrass, Italian = test: Test C postemergence; assay type: in vivo, Lolium multiflorum
Outline: as §1

galium = test: Test C postemergence; assay type: in vivo, Galium aparine
Outline: as §1

[3] = Postemergence, 31 g ai/ha, visually evaluated after 13 to 15 days
[4] = postemergence, 62 g ai/ha, scale 0 to 100
[5] = postemergence, 250 g ai/ha, scale 0 to 100 (0 no effect, 100 complete control)
[6] = postemergence, 125 g ai/ha, scale 0 to 100, 0 no effect, 100 complete control

With `CCCc1cc(C(=O)NCC)nn1Cc1ccnc(C(F)(F)F)c1` [Compound 95] the “Plant response rating (scale of 0 to 100 where 0 is no effect and 100 is complete control), Waterhemp” value (waterhemp; [3]) was 30, the “Waterhemp plant response rating” value (waterhemp; [4]) was 30 and the “Plant response rating, Waterhemp” value (waterhemp; [5]) was 30. The “Plant response rating, Waterhemp” value (waterhemp; [6]) was 30, the “Plant response rating (scale of 0 to 100 where 0 is no effect and 100 is complete control), Kochia” value (kochia; [3]) was 50 and the “Kochia plant response rating” value (kochia; [4]) was 70. For the same molecule, the “Plant response rating, Kochia” value (kochia; [5]) was 85, the “Plant response rating, Kochia” value (kochia; [6]) was 85 and the “Plant response rating (scale of 0 to 100 where 0 is no effect and 100 is complete control), Lambsquarters” value (lambsquarters [1]; [3]) was 40. For the same molecule, the “Lambsquarters plant response rating” value (lambsquarters [1]; [4]) was 80, the “Plant response rating, Lambsquarters” value (lambsquarters [1]; [5]) was 98 and the “Plant response rating, Lambsquarters” value (lambsquarters [1]; [6]) was 90. For the same molecule, the “Plant response rating (scale of 0 to 100 where 0 is no effect and 100 is complete control), Pigweed” value (pigweed; [3]) was 10, the “Pigweed plant response rating” value (pigweed; [4]) was 40 and the “Plant response rating, Pigweed” value (pigweed; [5]) was 70. The “Plant response rating, Pigweed” value (pigweed; [6]) was 40, the “Plant response rating (scale of 0 to 100 where 0 is no effect and 100 is complete control), Blackgrass” value (blackgrass; [3]) was 5 and the “Blackgrass plant response rating” value (blackgrass; [4]) was 5. For the same molecule, the “Plant response rating, Blackgrass” value (blackgrass; [5]) was 35, the “Plant response rating, Blackgrass” value (blackgrass; [6]) was 15 and the “Plant response rating (scale of 0 to 100 where 0 is no effect and 100 is complete control), Wheat” value (wheat; [3]) was 5. The “Wheat plant response rating” value (wheat; [4]) was 5, the “Plant response rating, Wheat” value (wheat; [5]) was 20 and the “Plant response rating, Wheat” value (wheat; [6]) was 10. For the same molecule, the “Plant response rating (scale of 0 to 100 where 0 is no effect and 100 is complete control), Foxtail, Giant” value (foxtail, giant; [3]) was 5, the “Foxtail, Giant plant response rating” value (foxtail, giant; [4]) was 40 and the “Plant response rating, Foxtail, Giant” value (foxtail, giant; [5]) was 60. The “Plant response rating, Foxtail, Giant” value (foxtail, giant; [6]) was 45, the “Plant response rating (scale of 0 to 100), Lambsquarters” value (lambsquarters [2]; Preemergence, 250 g ai/ha) was 100 and the “Lambsquarters plant response rating” value (lambsquarters [2]; preemergence, 31 g ai/ha, visual rating, scale 0 to 100 (0 no effect, 100 complete control), 13 to 15 days) was 100. For the same molecule, the “Plant response rating, Lambsquarters” value (lambsquarters [2]; preemergence, 62 g ai/ha, 13 to 15 days, scale 0 to 100, 0 = no effect, 100 = complete control) was 100, the “Lambsquarters plant response rating” value (lambsquarters [2]; preemergence, 125 g ai/ha, scale 0 to 100, 0 is no effect, 100 is complete control) was 100 and the “Plant response rating (scale of 0 to 100 where 0 is no effect and 100 is complete control), Soybean” value (soybean; [3]) was 45. For the same molecule, the “Soybean plant response rating” value (soybean; [4]) was 50, the “Plant response rating, Soybean” value (soybean; [6]) was 80 and the “Plant response rating (scale of 0 to 100 where 0 is no effect and 100 is complete control), Velvetleaf” value (velvetleaf; [3]) was 10. For the same molecule, the “Velvetleaf plant response rating” value (velvetleaf; [4]) was 15, the “Plant response rating, Velvetleaf” value (velvetleaf; [5]) was 40 and the “Plant response rating, Velvetleaf” value (velvetleaf; [6]) was 35. The “Plant response rating (scale of 0 to 100 where 0 is no effect and 100 is complete control), Nutsedge, Yellow” value (nutsedge, yellow; [3]) was 0, the “Nutsedge, Yellow plant response rating” value (nutsedge, yellow; [4]) was 0 and the “Plant response rating, Nutsedge, Yellow” value (nutsedge, yellow; [5]) was 10. The “Plant response rating, Nutsedge, Yellow” value (nutsedge, yellow; [6]) was 5, the “Plant response rating (scale of 0 to 100 where 0 is no effect and 100 is complete control), Morningglory” value (morningglory; [3]) was 50 and the “Morningglory plant response rating” value (morningglory; [4]) was 50. For the same molecule, the “Plant response rating, Morningglory” value (morningglory; [5]) was 70, the “Plant response rating, Morningglory” value (morningglory; [6]) was 50 and the “Plant response rating (scale of 0 to 100 where 0 is no effect and 100 is complete control), Oilseed Rape” value (oilseed rape; [3]) was 30. For the same molecule, the “Oilseed Rape plant response rating” value (oilseed rape; [4]) was 30, the “Plant response rating, Oilseed Rape” value (oilseed rape; [5]) was 50 and the “Plant response rating, Oilseed Rape” value (oilseed rape; [6]) was 50. For the same molecule, the “Plant response rating (scale of 0 to 100 where 0 is no effect and 100 is complete control), Corn” value (corn; [3]) was 5, the “Corn plant response rating” value (corn; [4]) was 10 and the “Plant response rating, Corn” value (corn; [5]) was 10. For the same molecule, the “Plant response rating, Corn” value (corn; [6]) was 10, the “Plant response rating (scale of 0 to 100 where 0 is no effect and 100 is complete control), Johnsongrass” value (johnsongrass; [3]) was 0 and the “Johnsongrass plant response rating” value (johnsongrass; [4]) was 0. The “Plant response rating, Johnsongrass” value (johnsongrass; [5]) was 30, the “Plant response rating, Johnsongrass” value (johnsongrass; [6]) was 5 and the “Plant response rating (scale of 0 to 100 where 0 is no effect and 100 is complete control), Chickweed” value (chickweed; [3]) was 85. For the same molecule, the “Chickweed plant response rating” value (chickweed; [4]) was 100, the “Plant response rating, Chickweed” value (chickweed; [5]) was 100 and the “Plant response rating, Chickweed” value (chickweed; [6]) was 100. For the same molecule, the “Plant response rating (scale of 0 to 100 where 0 is no effect and 100 is complete control), Ryegrass, Italian” value (ryegrass, Italian; [3]) was 5, the “Ryegrass, Italian plant response rating” value (ryegrass, Italian; [4]) was 5 and the “Plant response rating, Ryegrass, Italian” value (ryegrass, Italian; [5]) was 30. The “Plant response rating, Ryegrass, Italian” value (ryegrass, Italian; [6]) was 5, the “Plant response rating (scale of 0 to 100 where 0 is no effect and 100 is complete control), Galium” value (galium; [3]) was 60 and the “Galium plant response rating” value (galium; [4]) was 80. For the same molecule, the “Plant response rating, Galium” value (galium; [5]) was 90 and the “Plant response rating, Galium” value (galium; [6]) was 90.
